Measured values as given in patent US8895004B2 (priority 2007, dated 2014).
“Also recorded” adds a separate entry of the source.

What was measured:
[1] = system: cultured hippocampal neurons treated with ω-conotoxin (P/Q-dominated cells); format: cell-based, rat
N-type currents = N-type currents (Rattus norvegicus, UniProt Q02294); format: cell-based

Aβ(1-42) globulomer: soluble, globular, non-covalent association of Aβ(1-42) peptides, apparent molecular weight 38/48 kDa, obtained as in Example 6b of WO2004/067561
amplitude of synaptic events (mIPSCs) [1]: no or little effect; also recorded: no effect | effect on amplitude of mIPSCs when P/Q channels are already blocked [1]: No effect | effect on synaptic activity / frequency of mIPSCs after blockade of P/Q channels by ω-agatoxin [1]: No additive effect; also recorded: no further effect | frequency of spontaneous synaptic events [1]: inhibits the frequency of spontaneous synaptic events | N-type calcium current amplitude (N-type currents): 1399.8±376.4 pA

CC[C@H](CO)Nc1nc(NCc2ccccc2)c2ncn(C(C)C)c2n1 [roscovitine]
amplitude of spontaneous synaptic currents [1]: No effect | reversal of Aβ globulomer-induced reduction of frequency of spontaneous synaptic events [1]: reversal
